# According to publication PMC9855371, “Antiparasitic Activity of Fluorophenyl-Substituted Pyrimido[1,2-a]benzimidazoles” (Biomedicines, 2023):
# Columns and labels:
# [1] = tested on: Leishmania major amastigotes; assay: Leishmania major amastigotes in peritoneal macrophages, percentage of infected macrophages (Giemsa); format: cell-based; details: Leishmania major amastigotes after 72 h, means of n = 3, SD ± 15%
# [2] = tested on: Vero cells; assay: In vitro cytotoxicity MTT assay in Vero cells; format: cell-based; details: Chlorocebus sabaeus; after 72 h; Vero cells (African green monkey kidney epithelial cells); means of n = 3, SD ± 15%
# Procedure: MTT assays were carried out for a cytotoxicity evaluation of the test compounds. Briefly, Vero cells were cultured in 96-well plates (5 × 10^3 cells/well/200 µL) for 24 h in RPMI 1640 medium with 10% FBS and 5% CO2, at 37 °C. Cells were washed with PBS, followed by treatment with test compounds for 72 h at varying concentrations (50, 25, 12.5, 6.25, 3.13, 1.65, and 0.75 µg mL^−1) in 10% FBS medium. Cells treated solely with medium in 2% FBS were used as a negative control. The supernatant was discarded, 50 µL RPMI 1640 medium containing 14 µL MTT (5 mg mL^−1) was added, and the cells were incubated for 4 h. The supernatant was removed again, and 150 µL DMSO was added in order to dissolve the formed formazan. A FLUOstar OPTIMA spectrophotometer was applied for colorimetric analysis (λ = 540 nm). The cytotoxicity was expressed by IC50 values (concentration which caused a 50% reduction in viable cells). IC50 values were calculated from three independent experiments.
# [3] = tested on: Leishmania major promastigotes; assay: Leishmania major promastigote viability, MTT assay; format: cell-based; details: Leishmania major promastigotes after 72 h, means of n = 3, SD ± 15%
# [4] = tested on: macrophages; assay: Effects of test compounds on macrophages (toxicity); format: cell-based, BALB/c mice; details: means of n = 3, SD ± 15%
# [5] = tested on: Toxoplasma gondii; assay: Toxoplasma gondii tachyzoite (RH strain) growth in infected Vero cells, infection index; format: cell-based; details: after 72 h, means of n = 3, SD ± 15%, read-out: EC50 (T. gondii)
# Procedure: Serial passages of cells of the Vero cell line (ATCC® CCL81™, Manassas, VA, USA) were applied for the cultivation of T. gondii tachyzoites of the RH strain (a gift from Dr. Saeed El-Ashram, State Key Laboratory for Agrobiotechnology, China Agricultural University, Beijing, China). Vero cells were cultured by using complete RPMI 1640 medium with heat-inactivated 10% FBS in a humidified 5% CO2 atmosphere, at 37 °C. The 96-well plates (5 × 10^3 cells/well in 200 µL RPMI 1640 medium) were used for the cultivation of the Vero cells and then incubated, at 37 °C, and 5% CO2 for one day, followed by removal of medium and washing the cells with PBS. Then, RPMI 1640 medium containing 2% FBS and T. gondii tachyzoites (RH strain) was given to the cells at a ratio of 5 (parasite):1 (Vero cells). After incubation, at 37 °C, and 5% CO2 for 5 h, cells were washed with PBS and then treated as described below.
# Control: RPMI 1640 medium containing DMSO (1%)
# Experimental: Medium + compounds (dissolved in DMSO) (50, 25, 12.5, 6.25, 3.13, 1.65, and 0.75 µg mL^−1).
# After incubation, at 37 °C, and 5% CO2 for 72 h, the cells were washed with PBS, fixed in 10% formalin and stained with 1% toluidine blue. Examination of the cells and determination of the infection index (number of cells infected from 200 cells tested) of T. gondii were carried out with an inverted photomicroscope. The following equation was used for the calculation of the inhibition in %:Inhibition (%) = (I Control − I Experimental)/(I Control) × 100 where “I Control” refers to the infection index of untreated cells and “I Experimental” refers to the infection index of cells treated with test compounds.
# Then, effects of test compounds on parasite growth were expressed as EC50 (effective concentration at 50%) values. EC50 values were obtained from three independent experiments.
SMILES,"EC50 ([1]; Leishmania major, 72 h)","EC50 ([3]; Leishmania major, 72 h)",melting point,EC50 [1],EC50 [3],IC50 [2],"IC50 ([4]; Mus musculus, Macrophage)",EC50 [5],IC50 [4]
"COc1cc(C2Nc3nc4ccccc4n3C(N)=C2C#N)cc(Br)c1OC (centres unmarked) [Compound 2e, 4-Amino-2-(3-bromo-4,5-dimethoxyphenyl)-1,2-dihydropyrimido[1,2-a]benzimidazole-3-carbonitrile]",75.5 µM,77.9 µM,282 to 283 °C,–,–,57.2 µM,64 µM,28.6 µM,63.8 µM
"N#CC1=C(N)n2c(nc3ccccc32)NC1c1cc(F)cc(F)c1 (centres unmarked) [Compound 2b, 4-Amino-2-(3,5-difluorophenyl)-1,2-dihydropyrimido[1,2-a]benzimidazole-3-carbonitrile]",22.9 µM,108 µM,279 to 280 °C,–,–,33.1 µM,28.5 µM,43.6 µM,–
"N#CC1=C(n2cccc2)n2c(nc3ccccc32)NC1c1ccc(F)cc1 (centres unmarked) [Compound 4d, 4-Pyrrolo-2-(4-fluorophenyl)-1,2-dihydropyrimido[1,2-a]benzimidazole-3-carbonitrile]",51.5 µM,32.1 µM,> 260 °C,–,–,41.4 µM,47.3 µM,34.9 µM,–
"N#CC1=C(N)n2c(nc3ccccc32)NC1c1cccnc1 (centres unmarked) [Compound 2f, 4-Amino-2-(3-pyridyl)-1,2-dihydropyrimido[1,2-a]benzimidazole-3-carbonitrile]",116 µM,53.4 µM,289 to 290 °C,–,–,106 µM,86 µM,60 µM,–
"O=C1C(O)=C([C@H]2CC[C@H](c3ccc(Cl)cc3)CC2)C(=O)c2ccccc21 [ATO, atovaquone, reference compound]",–,–,–,–,–,9.5 µM,–,0.07 µM,–
"N#CC1=C(n2cccc2)n2c(nc3ccccc32)NC1c1cc(F)cc(F)c1 (centres unmarked) [Compound 4b, 4-Pyrrolo-2-(3,5-difluorophenyl)-1,2-dihydropyrimido[1,2-a]benzimidazole-3-carbonitrile]",46.1 µM,28.9 µM,> 240 °C,–,–,32.4 µM,39.9 µM,18.2 µM,–
"C[C@@H]1[C@H](O)[C@@H](C)/C=C/C=C/C=C/C=C/C=C/C=C/C=C/[C@H](O[C@@H]2O[C@H](C)[C@@H](O)[C@H](N)[C@@H]2O)C[C@@H]2O[C@](O)(C[C@@H](O)C[C@@H](O)[C@H](O)CC[C@@H](O)C[C@@H](O)CC(=O)O[C@H]1C)C[C@H](O)[C@H]2C(=O)O [AmB, Amphotericin B, reference compound]",0.47 µM,0.83 µM,–,–,–,7.7 µM,–,–,–
"N#CC1=C(n2cccc2)n2c(nc3ccccc32)NC1c1ccccc1F (centres unmarked) [Compound 4c, 4-Pyrrolo-2-(2-fluorophenyl)-1,2-dihydropyrimido[1,2-a]benzimidazole-3-carbonitrile]",49.2 µM,15.2 µM,> 240 °C (dec.),–,–,23.6 µM,43.9 µM,24.8 µM,–

# Continued, in another order:
"EC50 ([1]; Leishmania major, 72 h)","EC50 ([3]; Leishmania major, 72 h)",melting point,EC50 [1],EC50 [3],SMILES,IC50 [2],"IC50 ([4]; Mus musculus, Macrophage)",EC50 [5],IC50 [4]
26.9 µM,14.4 µM,–,–,–,N#CC1=C(N)n2c(nc3ccccc32)NC1c1ccc(F)cc1 (centres unmarked) [Compound 2d],26.9 µM,19.3 µM,27.8 µM,–
24.9 µM,49.8 µM,–,–,–,N#CC1=C(N)n2c(nc3ccccc32)NC1c1ccccc1F (centres unmarked) [Compound 2c],18.3 µM,31.4 µM,26.9 µM,–
0.2 to 0.4 µM,0.2 to 0.4 µM,216 to 217 °C (dec.),0.2 µM,0.39 µM,"N#CC1=C(N)n2c(nc3ccccc32)NC1c1cccc(F)c1 (centres unmarked) [Compound 2a, 4-Amino-2-(3-fluorophenyl)-1,2-dihydropyrimido[1,2-a]benzimidazole-3-carbonitrile]",4.32 µM,0.98 µM,4.59 µM,–
27 µM,32 µM,> 350 °C (dec.),–,–,"N#Cc1c(-c2ccccc2F)nc2nc3ccccc3n2c1N [Compound 3c, 4-Amino-2-(2-fluorophenyl)pyrimido[1,2-a]benzimidazole-3-carbonitrile]",25.7 µM,21.1 µM,20.8 µM,–
28 µM,35.6 µM,> 370 °C (dec.),–,–,"N#Cc1c(-c2cccc(F)c2)nc2nc3ccccc3n2c1N [Compound 3a, 4-Amino-2-(3-fluorophenyl)pyrimido[1,2-a]benzimidazole-3-carbonitrile]",38.3 µM,22.4 µM,35.9 µM,–
50.9 µM,20.3 µM,> 260 °C (dec.),–,–,"N#CC1=C(n2cccc2)n2c(nc3ccccc32)NC1c1cccc(F)c1 (centres unmarked) [Compound 4a, 4-Pyrrolo-2-(3-fluorophenyl)-1,2-dihydropyrimido[1,2-a]benzimidazole-3-carbonitrile]",34.9 µM,41.4 µM,33.2 µM,–
29 µM,13.7 µM,> 370 °C (dec.),–,–,"N#Cc1c(-c2cc(F)cc(F)c2)nc2nc3ccccc3n2c1N [Compound 3b, 4-Amino-2-(3,5-difluorophenyl)pyrimido[1,2-a]benzimidazole-3-carbonitrile]",22.7 µM,24.3 µM,2.8 µM,–
26.1 µM,36.9 µM,–,–,–,N#Cc1c(-c2ccc(F)cc2)nc2nc3ccccc3n2c1N [Compound 3d],43.5 µM,20.1 µM,41.9 µM,–
